Columns and labels:
Type in all cases: functional
Cydia pomonella [1] = assay: Insecticidal activity against Cydia pomonella (codling moth) assessed as mortality at 40 mg/kg diet topically measured after 10 days of continuous exposure (reference value: 3.3 +/- 3.3%); conditions: topical, 240 h
Cydia pomonella [2] = assay: Antifeedant activity against Cydia pomonella (codling moth) at 80 mg/kg diet topically measured after 10 days of continuous exposure (reference value: 6.7 +/- 6.7%)
Cydia pomonella [3] = assay: Insecticidal activity against Cydia pomonella (codling moth) at 20 mg/kg assessed as growth regulation measured as number of head capsules of larvae after 10 days of continuous exposure Rvb = (1.5 +/- 0.2%)
Cydia pomonella [4] = assay: Antifeedant activity against Cydia pomonella (codling moth) at 80 mg/kg diet topically measured after 5 days of continuous exposure (reference value: 6.7 +/- 6.7%)
Cydia pomonella [5] = assay: Insecticidal activity against Cydia pomonella (codling moth) assessed as mortality at 80 mg/kg diet topically measured after 10 days of continuous exposure (reference value: 3.3 +/- 3.3%); conditions: topical, 240 h
Cydia pomonella [6] = assay: Insecticidal activity against Cydia pomonella (codling moth) assessed as mortality at 20 mg/kg diet topically measured after 5 days of continuous exposure (reference value: 0%); conditions: topical, 120 h
Cydia pomonella [7] = assay: Antifeedant activity against Cydia pomonella (codling moth) at 20 mg/kg diet topically measured after 10 days of continuous exposure (reference value: 6.7 +/- 6.7%)
Cydia pomonella [8] = assay: Insecticidal activity against Cydia pomonella (codling moth) at 40 mg/kg assessed as growth regulation measured as number of head capsules of larvae after 10 days of continuous exposure Rvb = (1.5 +/- 0.2%)
Cydia pomonella [9] = assay: Insecticidal activity against Cydia pomonella (codling moth) at 40 mg/kg assessed as growth regulation measured as number of head capsules of larvae after 5 days of continuous exposure (reference value: 0.2 +/- 0.2%)
Cydia pomonella [10] = assay: Insecticidal activity against Cydia pomonella (codling moth) assessed as mortality at 80 mg/kg diet topically measured after 5 days of continuous exposure (reference value: 0%); conditions: topical, 120 h
Cydia pomonella [11] = assay: Insecticidal activity against Cydia pomonella (codling moth) at 80 mg/kg assessed as growth regulation measured as number of head capsules of larvae after 10 days of continuous exposure Rvb = (1.5 +/- 0.2%)
Cydia pomonella [12] = assay: Antifeedant activity against Cydia pomonella (codling moth) at 20 mg/kg diet topically measured after 5 days of continuous exposure (reference value: 6.7 +/- 6.7%)
Cydia pomonella [13] = assay: Insecticidal activity against Cydia pomonella (codling moth) assessed as mortality at 20 mg/kg diet topically measured after 10 days of continuous exposure (reference value: 3.3 +/- 3.3%); conditions: topical, 240 h
Cydia pomonella [14] = assay: Insecticidal activity against Cydia pomonella (codling moth) assessed as mortality at 40 mg/kg diet topically measured after 5 days of continuous exposure (reference value: 0%); conditions: topical, 120 h
Cydia pomonella [15] = assay: Insecticidal activity against Cydia pomonella (codling moth) at 80 mg/kg assessed as growth regulation measured as number of head capsules of larvae after 5 days of continuous exposure (reference value: 0.2 +/- 0.2%)
Cydia pomonella [16] = assay: Antifeedant activity against Cydia pomonella (codling moth) at 40 mg/kg diet topically measured after 5 days of continuous exposure (reference value: 6.7 +/- 6.7%)
Cydia pomonella [17] = assay: Antifeedant activity against Cydia pomonella (codling moth) at 40 mg/kg diet topically measured after 10 days of continuous exposure (reference value: 6.7 +/- 6.7%)
Cydia pomonella [18] = assay: Insecticidal activity against Cydia pomonella (codling moth) at 20 mg/kg assessed as growth regulation measured as number of head capsules of larvae after 5 days of continuous exposure (reference value: 0.2 +/- 0.2%)
Cydia pomonella [19] = assay: Antifeedant activity against Cydia pomonella (codling moth) at 20 mg/kg diet topically measured after 5 days of continuous exposure (reference value: 30 +/-20.9%)
Cydia pomonella [20] = assay: Insecticidal activity against Cydia pomonella (codling moth) assessed as mortality at 2 mg/kg diet topically measured after 10 days of continuous exposure (reference value: 43.3 +/- 26%); conditions: topical, 240 h
Cydia pomonella [21] = assay: Insecticidal activity against Cydia pomonella (codling moth) assessed as mortality at 20 mg/kg diet topically measured after 5 days of continuous exposure (reference value: 23.3 +/- 18.5%); conditions: topical, 120 h
Cydia pomonella [22] = assay: Insecticidal activity against Cydia pomonella (codling moth) at 20 mg/kg assessed as growth regulation measured as number of head capsules of larvae after 5 days of continuous exposure (reference value: 0.3 +/- 0.3%)
Cydia pomonella [23] = assay: Insecticidal activity against Cydia pomonella (codling moth) at 2 mg/kg assessed as growth regulation measured as number of head capsules of larvae after 5 days of continuous exposure (reference value: 0.3 +/- 0.3%)
Cydia pomonella [24] = assay: Antifeedant activity against Cydia pomonella (codling moth) at 20 mg/kg diet topically measured after 10 days of continuous exposure (reference value: 30 +/-20.9%)
Cydia pomonella [25] = assay: Insecticidal activity against Cydia pomonella (codling moth) at 20 mg/kg assessed as growth regulation measured as number of head capsules of larvae after 10 days of continuous exposure (reference value: 1.3 +/- 0.3%)
Cydia pomonella [26] = assay: Antifeedant activity against Cydia pomonella (codling moth) at 2 mg/kg diet topically measured after 10 days of continuous exposure (reference value: 30 +/-20.9%)
Cydia pomonella [27] = assay: Insecticidal activity against Cydia pomonella (codling moth) assessed as mortality at 2 mg/kg diet topically measured after 5 days of continuous exposure (reference value: 23.3 +/- 18.5%); conditions: topical, 120 h
Cydia pomonella [28] = assay: Insecticidal activity against Cydia pomonella (codling moth) assessed as mortality at 20 mg/kg diet topically measured after 10 days of continuous exposure (reference value: 43.3 +/- 26%); conditions: topical, 240 h
Cydia pomonella [29] = assay: Antifeedant activity against Cydia pomonella (codling moth) at 2 mg/kg diet topically measured after 5 days of continuous exposure (reference value: 30 +/-20.9%)
Cydia pomonella [30] = assay: Insecticidal activity against Cydia pomonella (codling moth) at 2 mg/kg assessed as growth regulation measured as number of head capsules of larvae after 10 days of continuous exposure (reference value: 1.3 +/- 0.3%)

CC1=C(O)C(=O)C=C2C1=CC=C1[C@@]2(C)CC[C@@]2(C)[C@@H]3C[C@@H](C)C(=O)C[C@]3(C)CC[C@]12C [TINGENONE]
mortality at 40 mg/kg (Cydia pomonella [1]): 10% | Activity (Cydia pomonella [2]): 93.3% | Activity (Cydia pomonella [3]): 3 | Activity (Cydia pomonella [4]): 100% | mortality at 80 mg/kg (Cydia pomonella [5]): 23.3% | mortality at 20 mg/kg (Cydia pomonella [6]): 0% | Activity (Cydia pomonella [7]): 0% | Activity (Cydia pomonella [8]): 1.4 | Activity (Cydia pomonella [9]): 0.3 | mortality at 80 mg/kg (Cydia pomonella [10]): 13.3% | Activity (Cydia pomonella [11]): 0 | Activity (Cydia pomonella [12]): 0% | mortality at 20 mg/kg (Cydia pomonella [13]): 0% | mortality at 40 mg/kg (Cydia pomonella [14]): 3.3% | Activity (Cydia pomonella [15]): 0 | Activity (Cydia pomonella [16]): 10% | Activity (Cydia pomonella [17]): 3.3% | Activity (Cydia pomonella [18]): 0.7

C/C=C(\C)C(=O)O[C@H]1C[C@@H](OC(C)=O)[C@@]2(C(=O)OC)CO[C@H]3[C@@H](O)[C@@](C)([C@]45O[C@@]4(C)[C@@H]4C[C@H]5O[C@@H]5OC=C[C@@]54O)[C@H]4[C@]1(CO[C@]4(O)C(=O)OC)[C@@H]32 [AZADIRACHTIN A]
Activity (Cydia pomonella [19]): 100% | mortality at 2 mg/kg (Cydia pomonella [20]): 66.7% | mortality at 20 mg/kg (Cydia pomonella [21]): 100% | Activity (Cydia pomonella [22]): 0 | Activity (Cydia pomonella [23]): 0 | Activity (Cydia pomonella [24]): 100% | Activity (Cydia pomonella [25]): 0 | Activity (Cydia pomonella [26]): 70% | mortality at 2 mg/kg (Cydia pomonella [27]): 50% | mortality at 20 mg/kg (Cydia pomonella [28]): 100% | Activity (Cydia pomonella [29]): 76.7% | Activity (Cydia pomonella [30]): 0.3

COC(=O)[C@]1(C)CC[C@]2(C)CC[C@]3(C)C4=CC=C5C(=CC(=O)C(O)=C5C)[C@]4(C)CC[C@@]3(C)[C@@H]2C1 [PRISTIMERIN]
mortality at 40 mg/kg (Cydia pomonella [1]): 60% | Activity (Cydia pomonella [2]): 90% | Activity (Cydia pomonella [3]): 0 | Activity (Cydia pomonella [4]): 90% | mortality at 80 mg/kg (Cydia pomonella [5]): 100% | mortality at 20 mg/kg (Cydia pomonella [6]): 20% | Activity (Cydia pomonella [7]): 93.3% | Activity (Cydia pomonella [8]): 0 | Activity (Cydia pomonella [9]): 0 | mortality at 80 mg/kg (Cydia pomonella [10]): 90% | Activity (Cydia pomonella [11]): 0 | Activity (Cydia pomonella [12]): 96.7% | mortality at 20 mg/kg (Cydia pomonella [13]): 60% | mortality at 40 mg/kg (Cydia pomonella [14]): 33.3% | Activity (Cydia pomonella [15]): 0 | Activity (Cydia pomonella [16]): 83.3% | Activity (Cydia pomonella [17]): 83.3% | Activity (Cydia pomonella [18]): 0

Source: ChEMBL document CHEMBL3046339, “Insecticidal activity of Maytenus species (Celastraceae) nortriterpene quinone methides against codling moth, Cydia pomonella (L.) (Lepidoptera: tortricidae)” (2000)
